{"source": "paper PMC10247784", "about": "“Physiological activation of human and mouse bitter taste receptors by bile acids” (Communications Biology, 2023)", "target": "T1, human TAS2R14 (Homo sapiens, UniProt Q9NYV8)", "T1 construct": "expressed in transfected cells; host or cells: HEK293T-Gα16gust44", "T1 sequence (Q9NYV8 1-317)": "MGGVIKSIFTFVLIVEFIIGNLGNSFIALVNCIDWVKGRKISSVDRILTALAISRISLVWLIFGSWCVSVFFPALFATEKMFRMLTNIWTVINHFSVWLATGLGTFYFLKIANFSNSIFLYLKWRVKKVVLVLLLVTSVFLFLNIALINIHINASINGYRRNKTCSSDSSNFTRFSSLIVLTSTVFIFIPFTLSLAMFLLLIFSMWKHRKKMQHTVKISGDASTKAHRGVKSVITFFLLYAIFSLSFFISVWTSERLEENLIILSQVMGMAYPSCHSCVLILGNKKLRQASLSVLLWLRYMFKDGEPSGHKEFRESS", "assay": "Calcium imaging assay (FLIPR), HEK293T-Gα16gust44 cells transfected with human TAS2R14", "format": "cell-based", "details": "for RLU: TAS2R14 trace", "description": "This set of bile acids was chosen because of their commercial availability in high purities, their diversity within the class of bile acids and their previous detection and quantitation in human blood. Stock solutions were prepared in DMSO.\nAs basal growth medium for the HEK293T-Gα16gust44 cell line[17],[59] served Dulbecco’s modified eagle medium (DMEM) (Thermo Fisher Scientific, Darmstadt, Germany) supplemented with 10 % fetal bovine serum (Sigma-Aldrich, Steinheim, Germany), 2 mM L-glutamine (Sigma-Aldrich, Steinheim, Germany), 100 units/ml penicillin (Sigma Aldrich, Steinheim, Germany) and 100 µg/ml streptomycin (Sigma Aldrich, Steinheim, Germany). Growth conditions were 37 °C, 5 % CO2 and saturated air-humidity[60].\nHEK293T-Gα16gust44 cells were seeded on poly-D-lysine (10 µg/ml) coated 96-well plates to reach a confluence of 40-60 % the next day. For transient transfection 150 ng of plasmid DNA containing the receptor of interest and 0.3 µl lipofectamine 2000 (Thermo Fisher Scientific, Darmstadt, Germany) per well were used and transfection took place according to the manual of lipofectamine 2000. […] The empty vector DNA (mock) was transfected as negative control[14],[41].\nCells were loaded using the calcium-sensitive fluorescent dye Fluo-4-AM (Abcam, Cambridge, Great Britain) in the presence of 2.5 mM probenecid (Sigma-Aldrich, Steinheim, Germany) the day after transfection[13],[41]. 1 h after loading, cells were washed with C1 buffer using a BioTek Cell Washer, incubated in the dark for half an hour and washed again. For automated agonist application and measurement of fluorescence changes, a FLIPR^TETRA device (Molecular Devices, San José, United States) was used. Viability of cells was tested by application of 100 nM Somatostatin 14 (Bachem, Bubendorf, Switzerland)[42].\nMeasured data were negative control corrected by subtracting the signal of the mock-transfected cells and exported to Microsoft Excel using the FLIPR software ScreenWorks 4.2. In Microsoft Excel software, standardization of maximum fluorescence intensities to the basal fluorescence and normalization to the buffer-only control was done to calculate the relative fluorescence changes (ΔF/F).\nInitial screening experiments performed in duplicate wells were confirmed by at least one replication and representative traces were selected for display. All dose-response relationships were determined by three independent experiments (biological replicates) performed in duplicates (technical replicates). Threshold concentrations, defined as lowest substance concentrations leading to statistically significant elevated fluorescence changes in receptor-transfected cells compared with empty vector-transfected cells, were determined using SigmaPlot with Student’s t-test to evaluate statistical significance (p < 0.01).", "note": "Where “and” joins values, the source holds several entries; their conditions need not be identical. Equal values may be shown once."}
{"smiles": "C[C@H](CCC(=O)O)[C@H]1CC[C@H]2[C@@H]3[C@H](O)C[C@@H]4C[C@H](O)CC[C@]4(C)[C@H]3C[C@H](O)[C@]12C", "note": "[Cholic Acid, cholic acid]", "values": [{"measurement": "Efficacy = maximal amplitude (ΔF/F)", "setting": "TAS2R14, bile acids, mean", "result": 0.2451}, {"measurement": "Efficacy (maximal amplitude ΔF/F), individual data points", "setting": "TAS2R14, bile acids, single replicates, listed as CA", "result": "0.2582 and 0.2878 and 0.1894"}, {"measurement": "RLU", "setting": "Time (s) 0", "result": 0, "unit": "RLU"}, {"measurement": "RLU", "setting": "Time (s) 2 (Taurocholic Acid 2.016)", "result": 8.733, "unit": "RLU"}, {"measurement": "RLU", "setting": "Time (s) 4 (Taurocholic Acid 4.016)", "result": -17.1002, "unit": "RLU"}, {"measurement": "RLU", "setting": "Time (s) 6 (Taurocholic Acid 6.016)", "result": -14.5682, "unit": "RLU"}, {"measurement": "RLU", "setting": "Time (s) 8 (Taurocholic Acid 8.016)", "result": -36.4848, "unit": "RLU"}, {"measurement": "RLU", "setting": "Time (s) 12 (Taurocholic Acid 12.016)", "result": -26.3442, "unit": "RLU"}, {"measurement": "RLU", "setting": "Time (s) 14 (Taurocholic Acid 14.016)", "result": -33.528, "unit": "RLU"}, {"measurement": "RLU", "setting": "Time (s) 16 (Taurocholic Acid 16.016)", "result": -31.0627, "unit": "RLU"}, {"measurement": "RLU", "setting": "Time (s) 18 (Taurocholic Acid 18.016)", "result": -30.2662, "unit": "RLU"}, {"measurement": "RLU", "setting": "Time (s) 18.797 (Chenodeoxycholic Acid 18.765)", "result": -22.7559, "unit": "RLU"}, {"measurement": "RLU", "setting": "Time (s) 20.797 (Chenodeoxycholic Acid 20.781)", "result": -44.5987, "unit": "RLU"}, {"measurement": "RLU", "setting": "Time (s) 22.797 (Chenodeoxycholic Acid 22.781)", "result": 9.863, "unit": "RLU"}, {"measurement": "RLU", "setting": "Time (s) 24.797 (Chenodeoxycholic Acid 24.781)", "result": -6.39, "unit": "RLU"}, {"measurement": "RLU", "setting": "Time (s) 26.797 (Chenodeoxycholic Acid 26.781)", "result": 16.5716, "unit": "RLU"}, {"measurement": "RLU", "setting": "Time (s) 28.797 (Chenodeoxycholic Acid 28.781)", "result": 41.6203, "unit": "RLU"}, {"measurement": "RLU", "setting": "Time (s) 30.797 (Chenodeoxycholic Acid 30.781)", "result": 60.9467, "unit": "RLU"}, {"measurement": "RLU", "setting": "Time (s) 32.797 (Chenodeoxycholic Acid 32.781)", "result": 99, "unit": "RLU"}, {"measurement": "RLU", "setting": "Time (s) 34.797 (Chenodeoxycholic Acid 34.781)", "result": 154.774, "unit": "RLU"}, {"measurement": "RLU", "setting": "Time (s) 36.797 (Chenodeoxycholic Acid 36.781)", "result": 189.099, "unit": "RLU"}, {"measurement": "RLU", "setting": "Time (s) 38.797 (Chenodeoxycholic Acid 38.781)", "result": 207.548, "unit": "RLU"}, {"measurement": "RLU", "setting": "Time (s) 40.797 (Chenodeoxycholic Acid 40.781)", "result": 286.95, "unit": "RLU"}, {"measurement": "RLU", "setting": "Time (s) 42.797 (Chenodeoxycholic Acid 42.781)", "result": 332.949, "unit": "RLU"}, {"measurement": "RLU", "setting": "Time (s) 44.797 (Chenodeoxycholic Acid 44.781)", "result": 381.413, "unit": "RLU"}, {"measurement": "RLU", "setting": "Time (s) 46.797 (Chenodeoxycholic Acid 46.781)", "result": 432.303, "unit": "RLU"}, {"measurement": "RLU", "setting": "Time (s) 48.797 (Chenodeoxycholic Acid 48.781)", "result": 481.551, "unit": "RLU"}, {"measurement": "RLU", "setting": "Time (s) 50.797 (Chenodeoxycholic Acid 50.781)", "result": 522.709, "unit": "RLU"}, {"measurement": "RLU", "setting": "Time (s) 52.797 (Chenodeoxycholic Acid 52.781)", "result": 573.985, "unit": "RLU"}, {"measurement": "RLU", "setting": "Time (s) 54.797 (Chenodeoxycholic Acid 54.781)", "result": 600.804, "unit": "RLU"}, {"measurement": "RLU", "setting": "Time (s) 56.797 (Chenodeoxycholic Acid 56.781)", "result": 603.138, "unit": "RLU"}, {"measurement": "RLU", "setting": "Time (s) 58.797 (Chenodeoxycholic Acid 58.781)", "result": 677.301, "unit": "RLU"}, {"measurement": "RLU", "setting": "Time (s) 60.797 (Chenodeoxycholic Acid 60.781)", "result": 689.232, "unit": "RLU"}, {"measurement": "RLU", "setting": "Time (s) 62.797 (Chenodeoxycholic Acid 62.781)", "result": 740.761, "unit": "RLU"}, {"measurement": "RLU", "setting": "Time (s) 64.797 (Chenodeoxycholic Acid 64.781)", "result": 760.673, "unit": "RLU"}, {"measurement": "RLU", "setting": "Time (s) 66.797 (Chenodeoxycholic Acid 66.781)", "result": 793.47, "unit": "RLU"}, {"measurement": "RLU", "setting": "Time (s) 68.797 (Chenodeoxycholic Acid 68.781)", "result": 795.682, "unit": "RLU"}, {"measurement": "RLU", "setting": "Time (s) 70.797 (Chenodeoxycholic Acid 70.781)", "result": 846.508, "unit": "RLU"}, {"measurement": "RLU", "setting": "Time (s) 72.797 (Chenodeoxycholic Acid 72.781)", "result": 873.655, "unit": "RLU"}, {"measurement": "RLU", "setting": "Time (s) 74.797 (Chenodeoxycholic Acid 74.781)", "result": 945.307, "unit": "RLU"}, {"measurement": "RLU", "setting": "Time (s) 76.797 (Chenodeoxycholic Acid 76.781)", "result": 951.601, "unit": "RLU"}, {"measurement": "RLU", "setting": "Time (s) 78.797 (Chenodeoxycholic Acid 78.781)", "result": 969.484, "unit": "RLU"}, {"measurement": "RLU", "setting": "Time (s) 80.797 (Chenodeoxycholic Acid 80.781)", "result": 1026.08, "unit": "RLU"}, {"measurement": "RLU", "setting": "Time (s) 82.797 (Chenodeoxycholic Acid 82.781)", "result": 1051.68, "unit": "RLU"}, {"measurement": "RLU", "setting": "Time (s) 84.797 (Chenodeoxycholic Acid 84.781)", "result": 1028.13, "unit": "RLU"}, {"measurement": "RLU", "setting": "Time (s) 86.797 (Chenodeoxycholic Acid 86.781)", "result": 1075.38, "unit": "RLU"}, {"measurement": "RLU", "setting": "Time (s) 88.797 (Chenodeoxycholic Acid 88.781)", "result": 1071.24, "unit": "RLU"}, {"measurement": "RLU", "setting": "Time (s) 90.797 (Chenodeoxycholic Acid 90.781)", "result": 1092.31, "unit": "RLU"}, {"measurement": "RLU", "setting": "Time (s) 92.797 (Chenodeoxycholic Acid 92.781)", "result": 1143.7, "unit": "RLU"}]}
